{"source": "paper PMC5478727", "about": "“A Novel Small Molecule GDNF Receptor RET Agonist, BT13, Promotes Neurite Growth from Sensory Neurons in Vitro and Attenuates Experimental Neuropathy in the Rat” (Frontiers in Pharmacology, 2017)", "key": {"[1]": {"target": "COMT (catechol-O-methyl transferase)", "test": "CEREP COMT (catechol-O-methyl transferase)", "format": "biochemical", "settings": "reference compound; Cat. No. 0457"}, "[2]": {"target": "T1, Protein Serine/Threonine Phosphatase, PP2A (Homo sapiens, UniProt P67775)", "T1 construct": "purchased CEREP (contract assay) 3953", "T1 sequence (P67775 whole entry)": "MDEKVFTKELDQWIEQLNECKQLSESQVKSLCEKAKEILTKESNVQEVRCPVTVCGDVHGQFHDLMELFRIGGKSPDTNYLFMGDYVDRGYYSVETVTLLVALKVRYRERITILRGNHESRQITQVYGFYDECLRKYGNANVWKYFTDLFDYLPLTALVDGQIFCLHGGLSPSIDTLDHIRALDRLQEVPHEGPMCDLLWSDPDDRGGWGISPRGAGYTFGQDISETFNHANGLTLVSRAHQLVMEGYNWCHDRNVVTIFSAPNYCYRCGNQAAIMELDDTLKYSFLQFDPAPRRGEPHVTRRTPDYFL", "test": "CEREP Protein Serine/Threonine Phosphatase, PP2A", "format": "biochemical"}, "TrkA": {"tested_on": "TrkA", "test": "TrkA phosphorylation assay in MG87TrkA cells", "format": "cell-based", "settings": "BT13 10–100 μM, NGF positive control", "method": "(§1) MG87RET, MG87TrkA, or MG87TrkB were plated on 35 mm tissue culture dishes 1–2 days before the experiment to achieve 90–95% of confluency of the cells at the day of stimulation with tested substances. If necessary, cells were transfected with 4 μg/well of GFRα1-, GFRα3-, or green fluorescent protein (GFP)-expressing plasmid using Lipofectamine 2000 (Invitrogen) for DNA delivery as described by manufacturer. Before the experiment cells were starved in serum-free DMEM containing 15 mM HEPES, pH 7.2 and 1% DMSO for 4 h and stimulated with BT13 or neurotrophic factors. Then cells were washed once with ice-cold PBS containing 1 mM Na3VO4 and 1 mM NaF and lysed on ice in 1 ml per well of RIPA-modified buffer (50 mM Tris-HCl, pH 7.4, 150 mM NaCl, 1 mM EDTA, 1% NP-40, 1% TX-100, 10% glycerol, EDTA-free protease inhibitor cocktail (Roche), 1 mM Na3VO4, 2.5 mg/ml of sodium deoxycholate, 1 mM NaF). Plates were incubated at +4°C on the horizontal shaker for 30 min with vigorous shaking. Afterwards, 80–100 μl aliquot was taken from each well to prepare whole cell lysates. This aliquot was mixed with equal volume of 2x Laemmli loading buffer (4% SDS, 20% glycerol, 10% 2-mercaptoethanol, 0.004% bromphenol blue, 0.125 M Tris HCl, pH 6.8) and boiled for 10 min at 100°C. Remaining cell lysates were used for immunoprecipitation of RET or Trk receptors. […]"}, "[3]": {"tested_on": "Akt and Erk phosphorylation in MG87TrkA", "test": "Erk1/2 and Akt phosphorylation assay in MG87TrkA cells", "format": "cell-based, murine", "settings": "BT13 10–100 μM, NGF positive control", "method": "as §1"}, "[4]": {"tested_on": "adult rat lumbar DRG sensory neurons", "test": "Neurite outgrowth from cultured DRG neurons", "format": "cell-based", "settings": "NGF 10 ng/ml", "method": "Cultured lumbar DRG (L3–L5) neurons were prepared using a published method (O'Mullane et al., [2013]). After plating onto poly-L-ornithine (5 μg/ml)/laminin (5 μg/ml) coated coverslips for 1 h, DRG neurons were cultured for 24–30 h in fresh Neurobasal A/B27. GFLs, BT13, NGF, and vehicle control were added at the start of this period for a 24–30 h treatment, except when preceded by pre-treatment (1 h) with inhibitors (50 μM LY294002; 2 μM SU6656, […]; Biomol Research Laboratories, Plymouth Meeting, PA, USA). DRG neurons were then fixed (4% paraformaldehyde) and processed for immunocytochemistry with 1:200 Mouse anti-β III tubulin/AlexaFluor 594 (Sigma-Aldrich Cat# T8660 RRID:AB_477590) and 1:5,000 rabbit anti-calcitonin gene-related peptide/AlexaFluor 488 (Sigma-Aldrich Cat# C8198 RRID:AB_259091) and DAPI for nuclear staining (0.5 μg/ml, Molecular Probes). Image analysis of multichannel 12 bit Zeiss .ZVI or .TIF files (captured with a Zeiss Imager.M1/MRm camera/Zen software; Carl Zeiss Australia, North Ryde, NSW, Australia) was then performed by a researcher blinded to the experimental condition. Neurite initiation was measured by a single parameter (proportion of neurons with neurites longer than the soma diameter). Neurite elongation was measured by batch processing (HCA-Vision software; CSIRO Mathematical and Information Sciences, North Ryde, NSW, Australia) to obtain four parameters—Root number: number of primary neurites; Maximum length: length of longest neurite; Branch points: number of neurite branch points; and Total length: sum of neurite lengths (Kalous and Keast, [2010]; Kalous et al., [2012]). The number of neurons of each immunocytochemical class counted on each coverslip (technical replicates) was 50 for neurite initiation and 20 for neurite elongation. A minimum of three cultures from different rats (biological replicates) were analyzed for each treatment group."}, "TrkB": {"target": "T2, TrkB (Rattus norvegicus, UniProt Q63604)", "T2 construct": "expressed in transfected cells; host or cells: MG87 murine fibroblasts (MG87TrkB)", "T2 sequence (Q63604 32-821)": "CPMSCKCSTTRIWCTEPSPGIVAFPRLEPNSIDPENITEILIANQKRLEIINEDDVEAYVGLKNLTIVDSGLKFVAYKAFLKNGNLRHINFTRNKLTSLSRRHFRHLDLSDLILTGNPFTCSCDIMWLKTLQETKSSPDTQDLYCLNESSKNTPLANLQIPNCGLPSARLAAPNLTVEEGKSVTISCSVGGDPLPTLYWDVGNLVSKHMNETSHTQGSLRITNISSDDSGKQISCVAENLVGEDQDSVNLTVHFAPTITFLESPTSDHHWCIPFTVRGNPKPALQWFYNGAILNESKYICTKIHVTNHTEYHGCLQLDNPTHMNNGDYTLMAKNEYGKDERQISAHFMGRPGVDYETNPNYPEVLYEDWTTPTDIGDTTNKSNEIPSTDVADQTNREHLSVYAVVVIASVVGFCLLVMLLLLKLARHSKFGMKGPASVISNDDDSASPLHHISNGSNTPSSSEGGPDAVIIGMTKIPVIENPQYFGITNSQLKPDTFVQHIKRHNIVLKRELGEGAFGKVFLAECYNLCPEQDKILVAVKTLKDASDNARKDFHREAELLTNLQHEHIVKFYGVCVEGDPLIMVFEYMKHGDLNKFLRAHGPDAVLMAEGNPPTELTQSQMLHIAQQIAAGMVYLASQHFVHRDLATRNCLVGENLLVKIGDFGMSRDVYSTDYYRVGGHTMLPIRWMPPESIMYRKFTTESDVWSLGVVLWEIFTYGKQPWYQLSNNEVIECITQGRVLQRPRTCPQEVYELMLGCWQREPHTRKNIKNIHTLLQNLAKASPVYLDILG", "test": "TrkB phosphorylation assay in MG87TrkB cells", "format": "cell-based", "settings": "BT13 10–100 μM, BDNF positive control", "method": "as §1"}, "[5]": {"tested_on": "Akt and Erk phosphorylation in MG87TrkB", "test": "Erk1/2 and Akt phosphorylation assay in MG87TrkB cells", "format": "cell-based, murine", "settings": "BT13 10–100 μM, BDNF positive control", "method": "as §1"}, "[6]": {"settings": "CGRP-positive neurons, vs control, BT13 100 ng/ml"}}, "data": [{"molecule": "O=C(c1cc(O)c(O)c([N+](=O)[O-])c1)c1ccccc1F", "note": "[Ro 41-0960, reference compound]", "values": [{"measurement": "IC50", "setting": "[1]", "result": 28, "unit": "nM"}]}, {"molecule": "COC[C@@H]([C@H](O)[C@H](O)C(=O)NCC[C@H](C)c1nc(/C=C/C[C@@H]2O[C@]3(C[C@@H](O)[C@@H]2C)O[C@H]([C@H](C[C@H](O)[C@H](C)[C@H](O)[C@H](C)/C=C(C)/C(C)=C/C=C/C(C)=C\\C#N)OC)[C@H](OP(=O)(O)O)C3(C)C)co1)N(C)C", "note": "[Calyculin A, reference compound]", "values": [{"measurement": "IC50", "setting": "[2]", "result": 0.49, "unit": "nM"}]}, {"molecule": "nerve growth factor [NGF]", "values": [{"measurement": "TrkA phosphorylation, Western blotting", "setting": "TrkA", "result": "responded"}, {"measurement": "Akt and Erk phosphorylation", "setting": "[3]", "result": "promoted Akt and Erk phosphorylation"}, {"measurement": "neurite initiation or extension", "setting": "[4]; CGRP-negative neurons, ARTN 30 ng/ml, BT13 100 ng/ml", "result": "no effect"}, {"measurement": "neurite initiation", "setting": "[4]; CGRP-positive neurons, ARTN 30 ng/ml, BT13 100 ng/ml, overnight", "result": "significantly increased"}, {"measurement": "neurite elongation, root number, mean difference", "setting": "[4]; CGRP-positive neurons, vs control", "result": "3 ± 1"}, {"measurement": "neurite elongation, branch points, mean difference", "setting": "[4]; [6]", "result": "48 ± 3"}, {"measurement": "neurite elongation, maximum length, mean difference", "setting": "[4]; [6]", "result": "99 ± 8", "unit": "μm"}, {"measurement": "neurite elongation, total length, mean difference", "setting": "[4]; [6]", "result": "1,421 ± 108 μm"}, {"measurement": "proportion of DRG neurons that expressed CGRP in culture", "setting": "[4]; ARTN 30 ng/ml, BT13 100 ng/ml", "result": "did not alter"}]}, {"molecule": "brain-derived neurotrophic factor (protein, UniProt P23560 19-247, looked up, neurotrophin, natural ligand of TrkB) Neurotrophic factor BDNF …: APMKEANIRGQGGLAYPGVRTHGTLESVNGPKAGSRGLTSLADTFEHVIEELLDEDQKVRPNEENNKDADLYTSRVMLSSQVPLEPPLLFLLEEYKNYLDAANMSMRVRRHSDPARRGELSVCDSISEWVTAADKKTAVDMSGGTVTVLEKVPVSKGQLKQYFYETKCNPMGYTKEGCRGIDKRHWNSQCRTTQSYVRALTMDSKKRIGWRFIRIDTSCVCTLTIKRGR", "values": [{"measurement": "TrkB phosphorylation, Western blotting", "setting": "TrkB", "result": "responded"}, {"measurement": "Akt and Erk phosphorylation", "setting": "[5]", "result": "promoted Akt and Erk phosphorylation"}]}]}
